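Five compound concentrations were applied to cells in 96-well plates for 48 hours; endpoints were derived by simple linear interpolation of the resulting dose-response curve. The concentration for 50% growth inhibition is given as GI50.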 Active and inactive are the calls of the source. Cut-off read from the data, not from the text of the source: active = GI50 up to about 1.1 µM and inactive = higher.
What was measured:
Assay in all cases: NCI tumour cell line growth inhibition, 48 h
[1] = tested on: SK-MEL-28
[2] = tested on: 786-0
[3] = tested on: OVCAR-4
[4] = tested on: SNB-75
[5] = tested on: HOP-92
[6] = tested on: UACC-257
[7] = tested on: IGROV-1
[8] = tested on: NCI-H23
[9] = tested on: UACC-62
[10] = tested on: COLO 205
[11] = tested on: DMS-114
[12] = tested on: OVCAR-3
[13] = tested on: DMS-273
[14] = tested on: HOP-62
[15] = tested on: SK-MEL-2
[16] = tested on: RXF 631
[17] = tested on: OVCAR-8
[18] = tested on: A549
[19] = tested on: HCC 2998
[20] = tested on: SF-539
[21] = tested on: HL-60
[22] = tested on: NCI-H226
[23] = tested on: SNB-78
[24] = tested on: HT-29
[25] = tested on: NCI-H460
[26] = tested on: UO-31
[27] = tested on: M14
[28] = tested on: DLD-1
[29] = tested on: K562
[30] = tested on: TK-10
[31] = tested on: SK-OV-3
[32] = tested on: SK-MEL-5
[33] = tested on: Malme-3M
[34] = tested on: CAKI-1
[35] = tested on: A498
[36] = tested on: EKVX
[37] = tested on: KM-20L2
[38] = tested on: CCRF-CEM
[39] = tested on: ACHN
[40] = tested on: SW-620
[41] = tested on: LOX IMVI
[42] = tested on: M19-MEL
[43] = tested on: KM12
[44] = tested on: HCT-116
[45] = tested on: MOLT-4
[46] = tested on: SF-268
[47] = tested on: OVCAR-5
[48] = tested on: LXFL 529
[49] = tested on: HCT-15
[50] = tested on: NCI-H522
[51] = tested on: SF-295
[52] = tested on: SN12C
[53] = tested on: RPMI-8226
[54] = tested on: U-251
[55] = tested on: SR
[56] = tested on: SNB-19
[57] = tested on: XF498
[58] = tested on: RXF 393

O=C(O)[C@@H]1CCCC[C@@H]1C(=O)N(C1CCCCC1)C1CCCCC1
GI50 [1]: > 100 µM (inactive)
GI50 [2]: > 100 µM (inactive)
GI50 [3]: > 100 µM (inactive)
GI50 [4]: > 100 µM (inactive)
GI50 [5]: > 100 µM (inactive)
GI50 [6]: > 100 µM (inactive)
GI50 [7]: > 100 µM (inactive)
GI50 [8]: > 100 µM (inactive)
GI50 [9]: > 100 µM (inactive)
GI50 [10]: > 100 µM (inactive)
GI50 [11]: > 100 µM (inactive)
GI50 [12]: > 100 µM (inactive)
GI50 [13]: > 100 µM (inactive)
GI50 [14]: > 100 µM (inactive)
GI50 [15]: > 100 µM (inactive)
GI50 [16]: > 100 µM (inactive)
GI50 [17]: > 100 µM (inactive)
GI50 [18]: > 100 µM (inactive)
GI50 [19]: > 100 µM (inactive)
GI50 [20]: > 100 µM (inactive)
GI50 [21]: > 100 µM (inactive)
GI50 [22]: > 100 µM (inactive)
GI50 [23]: > 100 µM (inactive)
GI50 [24]: > 100 µM (inactive)
GI50 [25]: > 100 µM (inactive)
GI50 [26]: > 100 µM (inactive)
GI50 [27]: > 100 µM (inactive)
GI50 [28]: > 100 µM (inactive)
GI50 [29]: > 100 µM (inactive)
GI50 [30]: > 100 µM (inactive)
GI50 [31]: > 100 µM (inactive)
GI50 [32]: > 100 µM (inactive)
GI50 [33]: > 100 µM (inactive)
GI50 [34]: > 100 µM (inactive)
GI50 [35]: > 100 µM (inactive)
GI50 [36]: > 100 µM (inactive)
GI50 [37]: > 100 µM (inactive)
GI50 [38]: > 100 µM (inactive)
GI50 [39]: > 100 µM (inactive)
GI50 [40]: > 100 µM (inactive)
GI50 [41]: > 100 µM (inactive)
GI50 [42]: > 100 µM (inactive)
GI50 [43]: > 100 µM (inactive)
GI50 [44]: > 100 µM (inactive)
GI50 [45]: > 100 µM (inactive)
GI50 [46]: > 100 µM (inactive)
GI50 [47]: > 100 µM (inactive)
GI50 [48]: > 100 µM (inactive)
GI50 [49]: > 100 µM
GI50 [50]: > 100 µM (inactive)
GI50 [51]: > 100 µM (inactive)
GI50 [52]: > 100 µM (inactive)
GI50 [53]: > 100 µM (inactive)
GI50 [54]: > 100 µM (inactive)
GI50 [55]: > 100 µM (inactive)

O=C(NCCO)c1cc2c(cn1)[nH]c1ccccc12
GI50 [56]: > 100 µM (inactive)
GI50 [1]: > 100 µM (inactive)
GI50 [2]: 17.4 µM (inactive)
GI50 [3]: > 100 µM (inactive)
GI50 [4]: 69.5 µM (inactive)
GI50 [5]: > 100 µM (inactive)
GI50 [6]: > 100 µM (inactive)
GI50 [7]: > 100 µM (inactive)
GI50 [8]: > 100 µM (inactive)
GI50 [9]: > 100 µM (inactive)
GI50 [10]: > 100 µM (inactive)
GI50 [11]: > 100 µM (inactive)
GI50 [12]: > 100 µM (inactive)
GI50 [13]: > 100 µM (inactive)
GI50 [14]: 17.9 µM (inactive)
GI50 [15]: 16.8 µM (inactive)
GI50 [16]: > 100 µM (inactive)
GI50 [17]: > 100 µM (inactive)
GI50 [18]: > 100 µM (inactive)
GI50 [19]: 16.9 µM (inactive)
GI50 [20]: > 100 µM (inactive)
GI50 [21]: > 100 µM (inactive)
GI50 [22]: > 100 µM (inactive)
GI50 [23]: > 100 µM (inactive)
GI50 [24]: > 100 µM (inactive)
GI50 [25]: > 100 µM (inactive)
GI50 [26]: > 100 µM (inactive)
GI50 [27]: > 100 µM (inactive)
GI50 [28]: 24.7 µM (inactive)
GI50 [29]: > 100 µM (inactive)
GI50 [30]: > 100 µM (inactive)
GI50 [31]: > 100 µM (inactive)
GI50 [32]: > 100 µM (inactive)
GI50 [33]: 22.1 µM (inactive)
GI50 [34]: > 100 µM (inactive)
GI50 [57]: > 100 µM (inactive)
GI50 [35]: > 100 µM (inactive)
GI50 [36]: > 100 µM (inactive)
GI50 [37]: > 100 µM (inactive)
GI50 [38]: > 100 µM (inactive)
GI50 [39]: > 100 µM (inactive)
GI50 [40]: > 100 µM (inactive)
GI50 [41]: > 100 µM (inactive)
GI50 [43]: > 100 µM (inactive)
GI50 [44]: > 100 µM (inactive)
GI50 [45]: > 100 µM (inactive)
GI50 [46]: > 100 µM (inactive)
GI50 [47]: > 100 µM (inactive)
GI50 [48]: > 100 µM (inactive)
GI50 [58]: > 100 µM (inactive)
GI50 [49]: > 100 µM
GI50 [50]: > 100 µM (inactive)
GI50 [51]: > 100 µM (inactive)
GI50 [52]: > 100 µM (inactive)
GI50 [53]: > 100 µM (inactive)
GI50 [54]: > 100 µM (inactive)
